From EP1420018A1, “Pyrido[1,2-a]benzimidazole derivatives useful in treating central nervous system disorders” (Ortho-McNeil Pharmaceutical, Inc., priority 1996, dated 1998)
Where two headings read alike, the source gives them in different places.

Legend:
[1] = test system: metrazol-induced convulsions; test: Suppression of Metrazol-Induced Convulsions in Adult Male Mice; format: in vivo; details: Mus musculus, ip, mouse
Description: Assay to Determine the Suppression of Metrazol-Induced Convulsions in Adult Male Mice
Male CD1 mice, were fasted at least 16 hours, were divided into equal groups and test compounds or vehicle were administered parenterally. Water was not withheld except during the period of observations. […] Metrazol was dissolved in 0.9% sodium chloride solution, and its dose volume was 10 ml/kg. Animals were housed individually for observation of clonic convulsions, tonic convulsions and death for a period of 30 min. […] The biological assay was considered to be valid if the effects of a known anticonvulsant (positive control) were detected, within the same experiment. Activity was reported as percent reduction of clonic convulsions from the vehicle group.

[2] = test system: Anxiety in the Adult Male Rat; test: Suppression of Anxiety in the Adult Male Rat (rat conflict test); format: in vivo, rats; details: rat; for minimal effective dose: Rattus norvegicus
Description: Assay to Measure the Suppression of Anxiety in the Adult Male Rat
Male rats were deprived of water for 48 hours and were deprived of food for 24 hours prior to testing. After the first 24 hours of water deprivation, they were placed in the conflict chamber for a training period; wherein, they were allowed 200 unpunished licks from a bottle containing tap water. The experiment was run the next day. At the expected time of peak activity, the animals were placed in the chamber and allowed access to tap water. […] Their first lick initiates a 3-min test session. Subsequently, every 20th lick was punished by a 0.2-s shock delivered via the stainless-steel drinking-tube.
The Wilcoxon rank-sum test (Mann-Whitney U-test) was used to test for an increase (p<0.05, 1-tailed) in the median number of shocks in drug-treated groups, compared to a concurrently run vehicle-treated group. The biological assay is considered to be valid if the effects of a known anxiolytic (positive control) are detected, within the same experiment.

[3] = test system: metrazol-induced convulsions; test: Suppression of Metrazol-Induced Convulsions in Adult Male Mice; format: in vivo; details: mouse; for ED50: Mus musculus, po
[4] = target: benzodiazepine site of the GABA-A receptor; test: Benzodiazepine Receptor Binding Assay (inhibition of 3H-flunitrazepam binding); details: read-out: GABAA Receptor Binding IC50
[5] = ip, ip, read-out: Rat Conflict (MED, mg/kg) ip
[6] = po, po, read-out: Rat Conflict (MED, mg/kg) po

Compound | ED50 [1] [mg/kg] | minimal effective dose [2, 5] [mg/kg] | minimal effective dose [2, 6] [mg/kg] | ED50 [3] [mg/kg] | IC50 [4] [nM] | Rat Conflict (MED, mg/kg) po ([2]; po) [mg/kg] | Mouse Metrazol (ED50, mg/kg) po [3] [mg/kg]
CCOCN1C2=C(C(=O)Nc3ccc(F)cc3F)C(=O)CCN2c2ccc(F)cc21 [Compound 123] | < 1 | ≤ 0.1 | 0.1 | < 3 | 1.19 |  | 
CCOCN1C2=C(C(=O)Nc3ccsc3)C(=O)CCN2c2ccc(F)cc21 [Compound 124] | < 1 |  | ~0.3 | ~0.2 | 0.98 |  | 
CCOCCN1C2=C(C(=O)Nc3sccc3Cl)C(=O)CCN2c2ccc(F)cc21 [Compound 125] | < 1 |  | > 10 | > 30 | 0.89 |  | 
CCOCCN1C2=C(C(=O)Nc3cccs3)C(=O)CCN2c2ccc(F)cc21 [Compound 126] | < 1 |  | 0.1 | ~0.6 | 0.73 |  | 
CCOCN1C2=C(C(=O)Nc3c(F)cccc3F)C(=O)CCN2c2c1ccc(F)c2F [Compound 127] | ~1 |  | > 10 | > 30 | 585 |  | 
CCOCN1C2=C(C(=O)Nc3cccs3)C(=O)CCN2c2ccc(F)cc21 [Compound 129] | < 1 |  | 3 | ~0.2 | 1.05 |  | 
CCOCCN1C2=C(C(=O)Nc3ccnc(F)c3)C(=O)CCN2c2ccc(F)cc21 [Compound 130] | < 1 |  | 1 | ~0.8 | 2.27 |  | 
CCOCCN1C2=C(C(=O)Nc3ccc(C)s3)C(=O)CCN2c2ccc(F)cc21 [Compound 131] | < 1 |  | ~1 | ~0.6 | 1.03 |  | 
CCOCN1C2=C(C(=O)Nc3ccc(Cl)s3)C(=O)CCN2c2ccc(F)cc21 [Compound 134] | < 1 |  | > 10 | 2 | 1.81 |  | 
COCCN1C2=C(C(=O)Nc3ccc(F)cc3F)C(=O)CCN2c2ccc(F)cc21 [Compound 136] | < 1 |  | 0.3 | 0.3 | 5.55 |  | 
CCOCCN1C2=C(C(=O)Nc3ccc(F)cc3F)C(=O)CCN2c2ccc(F)cc21 [Compound 137] | < 1 | 1 | 1 | 0.15 | 2.4 |  | 
COCCN1C2=C(C(=O)Nc3sccc3Cl)C(=O)CCN2c2ccc(F)cc21 [Compound 138] | < 1 |  | > 10 | 30 | 1.34 |  | 
COCCN1C2=C(C(=O)Nc3cccs3)C(=O)CCN2c2ccc(F)cc21 [Compound 139] | < 1 |  | ~1 | ~0.2 | 1.79 |  | 
COCCN1C2=C(C(=O)Nc3nccs3)C(=O)CCN2c2ccc(F)cc21 [Compound 140] | < 1 |  |  |  | 3.97 | >10 | 0.3
CCOCCN1C2=C(C(=O)Nc3nccs3)C(=O)CCN2c2ccc(F)cc21 [Compound 141] | < 1 |  | > 3 | ~6 | 6.78 |  | 
COCCN1C2=C(C(=O)Nc3ccc(C)s3)C(=O)CCN2c2ccccc21 [Compound 142] | < 1 |  | ~1 | 0.7 | 3.17 |  | 
COCCN1C2=C(C(=O)Nc3ccc(C)s3)C(=O)CCN2c2ccc(F)cc21 [Compound 143] | < 1 |  | < 10 | 0.7 | 1.35 |  | 
COCCN1C2=C(C(=O)Nc3ccc(Br)s3)C(=O)CCN2c2ccc(F)cc21 [Compound 144] | < 1 |  | > 10 | ~10 | 5.26 |  | 
COCCN1C2=C(C(=O)Nc3ccc(Cl)s3)C(=O)CCN2c2ccc(F)cc21 [Compound 145] | < 1 |  | > 10 | ~30 | 2.05 |  | 
COCCN1C2=C(C(=O)Nc3ccc(Cl)s3)C(=O)CCN2c2ccccc21 [Compound 146] | < 1 |  | > 10 | > 30 | 2.09 |  | 
